Assay results published in patent US7807368B2, “Cyclin-dependent kinase inhibitors as targets for opiod growth factor treatment” (priority 2006, dated 2010).
“Also recorded” adds a separate entry of the source.

Key:
Cdk4 kinase activity = assay: Immunoprecipitation and Rb kinase assay (Cdk4 kinase activity) in SCC-1 cells; format: cell-based, human
Procedure: To quantify expression levels or kinase activity, the optical density of each band was determined by densitometry and analyzed by QuickOne (Bio-Rad Laboratories). Each value was normalized to β-actin from the same blot. To report the changes due to OGF treatment, the fold increase was calculated by dividing the normalized value from the OGF treated samples by the normalized value of control samples at each time point; thus, increases due to OGF have values greater than one, and decreases due to OGF have values less than one.
Immunoprecipitation and Rb kinase assay. For immunoprecipitating protein complexes, cell extracts were prepared as follows: 2×10^6 cells per sample were rinsed in cold PBS followed by lysis in 100 μl NP40 immunoprecipitation buffer (1% NP-40, 50 mM Tris-HCI (pH7.4), 150 mM NaCl, 1 mM EDTA, 10 mM NaF, 2 μg/ml antipain, 1 mM sodium orthovanidate, 2 μg/ml aprotinin, 2 μg/ml leupeptin, 1 μg/ml pepstatin A, 1 μM okadaic acid, 1 mM PMSF, 1 mM dithiothreitol (DTT). For each immunoprecipitation reaction mixture, a total of 500 μg of protein extract was used. The lysates were then subjected to immunoprecipitation using 10 μl polyclonal antibody against Cdk4 prebound with agarose conjugate (sc-601 AC, Santa Cruz) for 60 min at 4° C. Then immunoprecipitates were mixed with kinase buffer (25 mM HEPES, pH7.4, 10 mM MgCl2), 5 μCi γ^32P-ATP, and Rb(769-921) (sc-4112, Santa Cruz) as the substrate for Cdk4. After incubation for 30 min at 30° C., with occasional mixing, the reaction was stopped by the addition of 2× sample loading buffer (0.5 M Tris-HCl, pH 6.8, 4.4% (w/v) SDS, 20% (v/v) glycerol, 2% (v/v) 2-mercaptoethanol, and bromophenol blue in distilled/deionized water). Proteins in the reaction mixture were separated by a 10% SDS-PAGE gel. The Cdk4 kinase activity pattern was visualized by autoradiography of phosphorylated Rb.

p16/Cdk4 complex = assay: Cdk4 immunoprecipitation, p16/Cdk4 and cyclin D1/Cdk4 complexes in SCC-1 cells; format: cell-based, human
Procedure: Cell extracts were subjected to immunoprecipitation using antibodies against Cdk4 and protein A beads (Santa Cruz). Immunoprecipitates were separated on a 15% SDS-PAGE gel, and membrane blots probed with p16 antibodies (1:200), and developed using a chemiluminescence Western blotting detection system. Blots were re-probed with Cdk4 antibody (1:200). Five independent experiments were performed.

SCC-1 cells = assay: Growth of SCC-1 cells transfected with p16 siRNA or negative control siRNA; format: cell-based, human; conditions: 10^-6 M OGF; for reduction in growth: negative control siRNA-transfected SCC-1 cells
Procedure: The p16-targeted siRNAs (antisense:5′ […]-3′; sense (SEQ ID NO:5): 5′ […]-3′(SEQ ID NO:6) were obtained as ready-annealed, purified duplex probes (Invitrogen, Carlsbad, Calif.). For transfection, 2×10^5 cells per well were seeded in 6-well plates containing 1 ml of serum-free media without antibiotics. In each well, 20 nM of p16-siRNA or control siRNA solutions in serum-free media were added. Cells were incubated for 4 h at 37° C. prior to the addition of OGF. Cultures were incubated for additional 20 h, and then 1 ml fresh complete media either lacking or containing OGF was added. At the indicated time points, cells were collected for growth curves or Western blotting. Three or more independent experiments were conducted. The control siRNAs were purchased from Ambion.

[1] = test system: BxPC-3 human pancreatic cancer cells; assay: Growth curves of BxPC-3 cells; format: cell-based; conditions: 10^-6 M OGF
Procedure: (§1) Human pancreatic cancer cell lines BxPC-3, PANC-1, and Capan-2 were obtained from the American Type Culture Collection (Manassas, Va.), and cultured in RPMI, Dulbecco's Modified Medium, or McCoy's 5A medium, respectively. All media were supplemented with 10% fetal bovine serum, 1.2% sodium bicarbonate, and 0.25% antibiotics (5000 units/ml penicillin, 5 μg/ml streptomycin and 10 μg/ml neomycin). OGF was purchased from Sigma-Aldrich (St. Louis, Mo.), dissolved in sterile water, and used at a final concentration of 10^−6 M.
For growth curves, cells were seeded in 6-well plates at an initial density of 2×10^5 cells/well. Fresh media and OGF were added 24 hours after initial seeding, and media and OGF were replaced daily. At appropriate times, the cells were washed with PBS, trypsinized, and viable cell numbers were counted by trypan blue exclusion using a hemacytometer.

p21/Cdk2 complex = assay: Cdk2 immunoprecipitation, p21/Cdk2 and cyclin E/Cdk2 complexes in BxPC-3 cells; format: cell-based, human
Source text: Cell extracts were subjected to immunoprecipitation using antibodies against Cdk2 and protein A beads. Immunoprecipitates were separated on a 15% SDSPAGE gel, and membrane blots probed with p21 antibodies (1:100), and developed using a chemiluminescence Western blotting detection system. Blots were reprobed with Cdk2 antibody (1:200).

Capan-2 cells = assay: Growth curves of Capan-2 cells transfected with p21 siRNA or negative control siRNA; format: cell-based, human
Procedure: as §1
The p21-targeted siRNAs were obtained from Santa Cruz Biotechnology, and negative control siRNAs were purchased from Ambion (Ambion, Inc., Austin, Tex.). For transfection, 2×10^5 cells per well were seeded in 6-well plates containing 1 ml of media without antibiotics. For each well, 1 μl of siRNA stock (20 μM) was mixed with 175 μl of serum-free media. Two μl of Oligofectamine reagent (Invitrogen, Carlsbad, Calif.) was added to prewashed cells in each well, making the final concentration for siRNA approximately 20 nM. Cells were incubated for 4 hours at 37° C. prior to the addition of OGF. Eighteen hours later, 1 ml fresh complete media with or without OGF was added to the cultures; media and OGF were replaced daily. At the indicated time points, cells were collected for growth curves or Western blotting.

[2] = test system: human umbilical vein endothelial cells (HUVEC); assay: Growth of HUVEC; format: cell-based
Source text: Another normal cell line, human umbilical vein endothelial cells (HUVEC) has been subjected to OGF exposure. […] At 96 hr, OGF-treated cultures had 45.9% fewer cells than normal cultures.

[Met^5]-enkephalin [OGF] was tested, and the “Cdk4 kinase activity vs control cells at each respective time” value (Cdk4 kinase activity; OGF for 3, 6, 9, or 12 h (FIG. 1)) was “differed significantly”, the “Cdk4 kinase activity relative to controls” value (Cdk4 kinase activity; OGF for 6, 9, and 12 h) was “marked decrease” and the “Cdk4 kinase activity relative to controls” value (Cdk4 kinase activity; OGF for 3 h) was “transient increase”. The “level of the p16/Cdk4 complex” value (p16/Cdk4 complex; 3, 6, 9, and 12 h, significant (p<0.05) at 9 and 12 h) was “elevated at all time points; also recorded: increased at all time points”, the “level of the cyclin D1/Cdk4 complex” value (p16/Cdk4 complex; after treatment with OGF) was “no change” and the “Cell numbers vs control levels” value (SCC-1 cells; FIG. 4 growth curves, p<0.05) was “significantly reduced”. The reduction in growth (SCC-1 cells; 72 h) was 24%, the reduction in growth (SCC-1 cells; 96 h) was 40% and the “cell numbers compared to control cultures” value ([1]; 48 hours) was 66%. The “cell numbers compared to control cultures” value ([1]; 72 hours) was 55%, the mean doubling time ([1]; linear regression of growth data) was 51 h and the “levels of the p21/Cdk2 complex” value (p21/Cdk2 complex; 3, 6, 9, 12, 15, 18, and 21 hours, significant (p<0.05) at 15 hours) was “elevated at all time points; also recorded: increase at 9, 12, 15, 18, and 21 hours”. For the same substance, the “level of the cyclin E/Cdk2 complex” value (p21/Cdk2 complex; after treatment with OGF) was “no change”, the effect on growth (Capan-2 cells; Capan-2 cells transfected with negative control siRNA, 48, 72, and 96 hours) was “did depress growth” and the “effect on growth of cells lacking p21” value (Capan-2 cells; Capan-2 cells transfected with p21 siRNA) was “no inhibitory action”. For the same substance, the “cell number relative to control cultures” value ([2]; 10^-6 M OGF, 48, 72, and 96 hr) was “significant (p<0.01) reductions” and the “fewer cells than normal cultures” value ([2]; 10^-6 M OGF, 96 hr) was 45.9%.
